Source: patent publication US11498899B2, “Nitrone herbicides” (FMC Corporation, priority 2016, dated 2022)

Experiments:
[1] = system: ducksalad (Heteranthera limosa); assay: Test B flooded paddy test, visual rating 0-100; conditions: Flood, 250 g ai/ha, applied to paddy water, rated after 13 to 15 days
[2] = system: barnyardgrass (Echinochloa crus-galli); assay: Test B flooded paddy test, visual rating 0-100; conditions: Flood, 250 g ai/ha, applied to paddy water, rated after 13 to 15 days
kochia (Kochia scoparia) [3] = assay: Test A preemergence, visual injury rating 0-100; format: in vivo
[4] = system: pigweed (Amaranthus retroflexus); assay: Test A preemergence, visual injury rating 0-100; format: in vivo
[5] = system: ryegrass, Italian (Italian ryegrass, Lolium multiflorum); assay: Test A preemergence, visual injury rating 0-100; format: in vivo
[6] = system: ragweed (common ragweed, Ambrosia elatior); assay: Test A preemergence, visual injury rating 0-100; format: in vivo
[7] = system: foxtail, green (green foxtail, Setaria viridis); assay: Test A preemergence, visual injury rating 0-100; format: in vivo
kochia (Kochia scoparia) [8] = assay: Test A postemergence, visual injury rating 0-100; format: in vivo; conditions: 0 to 100 scale
[9] = system: blackgrass (Alopecurus myosuroides); assay: Test A postemergence, visual injury rating 0-100; format: in vivo; conditions: 0 to 100 scale
[10] = system: barnyardgrass (Echinochloa crus-galli); assay: Test A postemergence, visual injury rating 0-100; format: in vivo; conditions: 0 to 100 scale
[11] = system: pigweed (Amaranthus retroflexus); assay: Test A postemergence, visual injury rating 0-100; format: in vivo; conditions: 0 to 100 scale
corn (Zea mays) = assay: Test A postemergence, visual injury rating 0-100; format: in vivo; conditions: 0 to 100 scale
[12] = system: wheat (Triticum aestivum); assay: Test A postemergence, visual injury rating 0-100; format: in vivo; conditions: 0 to 100 scale
[13] = system: ryegrass, Italian (Italian ryegrass, Lolium multiflorum); assay: Test A postemergence, visual injury rating 0-100; format: in vivo; conditions: 0 to 100 scale
[14] = system: ragweed (common ragweed, Ambrosia elatior); assay: Test A postemergence, visual injury rating 0-100; format: in vivo; conditions: 0 to 100 scale
[15] = system: foxtail, green (green foxtail, Setaria viridis); assay: Test A postemergence, visual injury rating 0-100; format: in vivo; conditions: 0 to 100 scale
rice (Oryza sativa) = assay: Test B flooded paddy test, visual rating 0-100 (0 no effect, 100 complete control); conditions: Flood, 250 g ai/ha, applied to paddy water, rated after 13 to 15 days
[16] = system: barnyardgrass (Echinochloa crus-galli); assay: Test A preemergence, visual injury rating 0-100 (0 no effect, 100 complete control); format: in vivo; conditions: for Barnyardgrass plant response rating (0 to 100 scale): 125 g ai/ha; for Barnyardgrass plant response rating: 500 g ai/ha, 0 to 100 scale

SMILES	Ducksalad plant response rating (0 to 100 scale) [1]	Barnyardgrass plant response rating (0 to 100 scale) [2]	Kochia plant response rating (0 to 100 scale) (kochia (Kochia scoparia) [3]; 125 g ai/ha)	Pigweed plant response rating (0 to 100 scale) ([4]; 125 g ai/ha)	Ryegrass, Italian plant response rating (0 to 100 scale) ([5]; 125 g ai/ha)	Ragweed plant response rating (0 to 100 scale) ([6]; 125 g ai/ha)	Foxtail, Green plant response rating (0 to 100 scale) ([7]; 125 g ai/ha)	Kochia plant response rating (kochia (Kochia scoparia) [8]; 125 g ai/ha)	Kochia plant response rating (kochia (Kochia scoparia) [8]; 500 g ai/ha)	Blackgrass plant response rating ([9]; 125 g ai/ha)	Blackgrass plant response rating ([9]; 500 g ai/ha)	Barnyardgrass plant response rating ([10]; 125 g ai/ha)	Barnyardgrass plant response rating ([10]; 500 g ai/ha)	Pigweed plant response rating ([11]; 125 g ai/ha)	Pigweed plant response rating ([11]; 500 g ai/ha)	Corn plant response rating (corn (Zea mays); 125 g ai/ha)	Corn plant response rating (corn (Zea mays); 500 g ai/ha)	Wheat plant response rating ([12]; 125 g ai/ha)	Wheat plant response rating ([12]; 500 g ai/ha)	Ryegrass, Italian plant response rating ([13]; 125 g ai/ha)	further results
CC1=[N+]([O-])C(C(=O)Nc2ccc(F)cc2F)C(c2ccc(C(F)(F)F)cc2)C1 (racemic) [Compound 46]	100	40	0	50	0	0	90	0	40	20	70	10	90	0	30	0	40	0	20	0	Kochia plant response rating (0 to 100 scale) (kochia (Kochia scoparia) [3]; 500 g ai/ha): 90; Pigweed plant response rating (0 to 100 scale) ([4]; 500 g ai/ha): 90; Ryegrass, Italian plant response rating (0 to 100 scale) ([5]; 500 g ai/ha): 0; Ragweed plant response rating (0 to 100 scale) ([6]; 500 g ai/ha): 90; Foxtail, Green plant response rating (0 to 100 scale) ([7]; 500 g ai/ha): 100; Ryegrass, Italian plant response rating ([13]; 500 g ai/ha): 40; Ragweed plant response rating ([14]; 125 g ai/ha): 0; Ragweed plant response rating ([14]; 500 g ai/ha): 30; Foxtail, Green plant response rating ([15]; 125 g ai/ha): 40; Foxtail, Green plant response rating ([15]; 500 g ai/ha): 90; Rice plant response rating (0 to 100 scale) (rice (Oryza sativa)): 20; Barnyardgrass plant response rating (0 to 100 scale) [16]: 70; Barnyardgrass plant response rating [16]: 100
CC1=[N+]([O-])[C@H](C(=O)Nc2cccc(F)c2F)[C@@H](c2ccc3c(c2)OC(F)(F)O3)C1 (relative stereo) [Compound 25, rel-(2S,3R)-3-(2,2-Difluoro-1,3-benzodioxol-5-yl)-N-(2,3-difluorophenyl)-3,4-dihydro-5-methyl-2H-pyrrole-2-carboxamide 1-oxide]	90	75	50	80	80	50	90	60	60	20	40	70	90	60	70	60	80	70	90	40	Kochia plant response rating (kochia (Kochia scoparia) [3]; 500 g ai/ha, 0 to 100 scale): 80; Pigweed plant response rating ([4]; 500 g ai/ha, 0 to 100 scale): 90; Ryegrass, Italian plant response rating ([5]; 500 g ai/ha, 0 to 100 scale): 50; Ragweed plant response rating ([6]; 500 g ai/ha, 0 to 100 scale): 100; Foxtail, Green plant response rating ([7]; 500 g ai/ha, 0 to 100 scale): 90; Ryegrass, Italian plant response rating ([13]; 500 g ai/ha): 50; Ragweed plant response rating ([14]; 125 g ai/ha): 40; Ragweed plant response rating ([14]; 500 g ai/ha): 50; Foxtail, Green plant response rating ([15]; 125 g ai/ha): 40; Foxtail, Green plant response rating ([15]; 500 g ai/ha): 90; Rice plant response rating (0 to 100 scale) (rice (Oryza sativa)): 0; Barnyardgrass plant response rating (0 to 100 scale) [16]: 90; Barnyardgrass plant response rating [16]: 90
CC1=[N+]([O-])[C@H](C(=O)Nc2ccc(F)nc2F)[C@@H](c2ccc(C(F)(F)F)cc2)C1 (relative stereo) [Compound 37, rel-(2S,3R)—N-(2,6-Difluoro-3-pyridinyl)-3,4-dihydro-5-methyl-3-[4-(trifluoromethyl)phenyl]-2H-pyrrole-2-carboxamide 1-oxide]	100	45	70	80	0	90	90	10	70	20	90	40	70	0	70	20	50	10	60	0	Kochia plant response rating (0 to 100 scale) (kochia (Kochia scoparia) [3]; 500 g ai/ha): 90; Pigweed plant response rating (0 to 100 scale) ([4]; 500 g ai/ha): 100; Ryegrass, Italian plant response rating (0 to 100 scale) ([5]; 500 g ai/ha): 0; Ragweed plant response rating (0 to 100 scale) ([6]; 500 g ai/ha): 100; Foxtail, Green plant response rating (0 to 100 scale) ([7]; 500 g ai/ha): 100; Ryegrass, Italian plant response rating ([13]; 500 g ai/ha): 40; Ragweed plant response rating ([14]; 125 g ai/ha): 0; Ragweed plant response rating ([14]; 500 g ai/ha): 60; Foxtail, Green plant response rating ([15]; 125 g ai/ha): 60; Foxtail, Green plant response rating ([15]; 500 g ai/ha): 90; Rice plant response rating (0 to 100 scale) (rice (Oryza sativa)): 0; Barnyardgrass plant response rating (0 to 100 scale) [16]: 90; Barnyardgrass plant response rating [16]: 100
